# Source: patent publication US20090325911A1, “Use of Androgens for the Treatment of Parkinson's Disease” (CARITAS ST. ELIZABETH MEDICAL CENTER OF BOSTON, INC., priority 2005, published 2009)
# Read-outs that look alike come from different tables or passages of the source.
# How the values were obtained:
# [1] = most potent of the male steroid hormones; cited from earlier work
# tyrosine hydroxylase [2] = details: CHP-212 cells pre-transfected with DJ-1-specific siRNA, increasing amount of DHT for forty-eight hours
# Protocol: The procedures for western blotting and immunoprecipitation were described previously^48. For DJ-1 immunoprecipitation, cells were lysed in denaturing RIPA-DOC buffer (50 mm Tris-HCl buffer (pH 8.0), containing 150 mM NaCl, 1% Triton X-100, 0.1% SDS, 1% sodium deoxycholate, 10 mM EDTA and a protease inhibitor cocktail (1× protease cocktail, Roche (Indianapolis, Ind.). For endogenous DJ-1 and PSF co-immunoprecipitation, cells were lysed in non-denaturing lysis buffer containing 1% Triton-X100. […] Antibody used for immunoprecipitation: rabbit polyclonal anti-DJ-15. Antibodies for western blotting include: a mouse monoclonal anti-tyrosine hydroxylase (Sigma); monoclonal (Stressgen, San Diego, Calif.) and polyclonal anti-DJ-1; a goat anti-β-actin (Santa Cruz Biotechnology, Santa Cruz, Calif.); a rabbit polyclonal anti-androgen receptor (Upstate, Charlottesville, Va.); a rabbit polyclonal anti-AKT and a mouse monoclonal anti-Phospho-AKT (Cell signaling, Beverly, Mass.). Antibodies used for immunoprecipitation included a mouse monoclonal anti-PSF (Sigma) and a rabbit polyclonal anti-DJ-1^18.
# CHP-212 cells = details: DJ-1 siRNA, 10 nM DHT, 300 μM H2O2
# Protocol: Cells were re-plated and pretreated with 10 nM dihydroxytestosterone or vehicle control (ethanol) for twenty-four hours, followed by H2O2 (300 μM) treatment plus 10 nM dihydroxytestosterone or vehicle control for additional 24 hours. Cell toxicity was evaluated by MTT assay. Values are the mean±s.e.m. n=3 experiments; *: P=0.0068 (t-test).
# To test whether dihydroxytestosterone can reverse this increased susceptibility, endogenous DJ-1 expression in CHP-212 cells was inhibited using DJ-1-specific siRNA. […] The siRNA treated cells were then further treated with 10 nM of dihydroxytestosterone in the presence or absence of 300 μM of H2O2.
# CHP-212 cells or SH-SY5Y cells were plated in six-well culture dishes and transfected with 100 nM of siRNA against human DJ-1 constructs (SMARTpool reagent, Dharmacon, Lafayette, Colo.) or non-specific control siRNA constructs (siControl non-targeting pool, Dharmacon). […] Cells were harvested forty-eight hours post-transfection for RNA extraction or at Day 1,2, or 4 for Western blot or re-plated in 96 well plate for MTS assay at 48 hrs post-transfection.
# tyrosine hydroxylase [3] = details: untransfected CHP-212 cells, DHT 0-1000 nM, forty-eight hours
# Protocol: (§1) Human CHP-212 cells were purchased from ATCC and maintained in cell culture media, EMEM/F-12 (50%/50%) containing 10% FBS and antibiotics. Native SH-SY5Y cells were maintained in DMEM supplemented with 10% FBS and antibiotics. For immunofluorescence, cells were grown on coverslips. […] Rat tyrosine hydroxylase-luc reporter plasmid (Kim et al Biochem Biophys Res Commun. 2003 Dec. 26; 312(4):950-7) and the pTK-Renilla luciferase plasmid for transfection control were obtained from Promega (Madison, Wis.). Human androgen receptor expression construct PCMV-Flag-AR was kindly provided by Dr. E. Wilson^75. H2O2 and DHT were purchased from Sigma (St. Louis, Mo.).
# (§2) The procedures for western blotting and immunoprecipitation were described previously^48. […]
# AKT = details: 10 nM DHT
# Protocol: DJ-1 likely serves as a transcriptional co-activator of androgen receptor^50,51. To determine whether androgen receptor and androgen activate the AKT pathway in human dopaminergic cell lines, native SH-SY5Y cells were treated with 10 nM of […], and levels of phosphorylated AKT was assayed by Western blot. […] The role of androgen receptor signaling in the activation of AKT was also tested in SH-SY5Y cells that were transiently transfected with human androgen receptor then treated with […].
# as §1, §2
# Protocol for SH-SY5Y cells: FIG. 8A is a graph that quantifies relative cell viability in SH-SY5Y cells that were pretreated with dihydroxytestosterone (DHT) (1 or 10 nM) or vehicle control (Ethanol) for twenty-four hours, then were subjected to H2O2 (500 μM) treatment plus dihydroxytestosterone (1 or 10 nM) or vehicle control for an additional twenty-four hours. Cell toxicity was evaluated using a 3-(4,5-dimethylthiazol-2-yl)-2,5-diphenyltetrazolium bromide (MTT) assay. […] Cells were re-plated and pretreated with 10 nM dihydroxytestosterone or vehicle control (ethanol) for twenty-four hours, followed by H2O2 (300 μM) treatment plus 10 nM dihydroxytestosterone or vehicle control for additional 24 hours. Cell toxicity was evaluated by MTT assay. Values are the mean±s.e.m. n=3 experiments; *: P=0.0068 (t-test).
# To evaluate whether dihydroxytestosterone similarly protects against oxidative stress-induced cell death in human dopaminergic neuroblastoma cells, SH-SY5Y cells were treated with increasing amount of dihydroxytestosterone in the presence or absence of 500 μM of hydrogen peroxide (H2O2). […] The siRNA treated cells were then further treated with 10 nM of dihydroxytestosterone in the presence or absence of 300 μM of H2O2.
compound,measurement,setting,value
"C[C@]12CCC(=O)C[C@@H]1CC[C@@H]1[C@@H]2CC[C@]2(C)[C@@H](O)CC[C@@H]12 [dihydroxytestosterone, dihydrotestosterone]",activity relative to testosterone,[1],10 times
same,cell death induced by oxidative stress,"SH-SY5Y cells; DHT 1 or 10 nM pretreatment 24 h, then 500 μM H2O2 plus DHT 24 h",significantly blocked cell death
same,effect on cell viability in the absence of H2O2,"SH-SY5Y cells; DHT 1 or 10 nM, no H2O2",subtle effect
same,rescue of tyrosine hydroxylase expression after DJ-1 inactivation,tyrosine hydroxylase [2],fully rescued
same,oxidative stress-induced cell death in DJ-1-specific siRNA treated cells,CHP-212 cells,significantly reduced oxidative stress-induced cell death
same,tyrosine hydroxylase protein levels,tyrosine hydroxylase [3],dose-dependent increase
same,time of peak level of phosphorylated AKT after treatment,AKT; SH-SY5Y cells transiently transfected with Flag-AR,15 min
same,time of peak level of phosphorylated AKT after treatment,AKT; native SH-SY5Y cells,ninety
same,AKT phosphorylation,"AKT; native SH-SY5Y cells, 5-90 minutes, no increase of total AKT",rapid phosphorylation of AKT
